From patent US20240408119A1, “DELIVERY OF THERAPEUTIC ALKALOID COMPOUNDS” (priority 2022, published 2024)

Experiment: Hydrolysis Assay - Condition 2 (DI Water)
Format: physicochemical
Conditions: 25° C., 0.5 mM
Protocol: 50 μL of compound (10 mM) in DMSO was diluted into 950 μL of DI water to a final concentration of 0.5 mM. The hydrolysis kinetics were conducted at 25° C. and measured by LCMS at a certain time interval.
The corresponding LCMS chromatogram were recorded and the conversions were calculated by integration of each peak.
• 1) LCMS spectra were obtained using Agilent 1200G1956A or SHIMADZU LCMS-2020. Standard LCMS conditions were as follows (running time 1.55 minutes): • Acidic condition: Mobile Phase A: 0.0375% TFA in water (v/v). Mobile Phase B: 0.01875% TFA in acetonitrile (v/v); Column: Kinetex EVO C18 30*2.1 mm, 5 μm. • Basic condition: Mobile Phase A: 0.025% NH3·H2O in water (v/v). Mobile Phase B: Acetonitrile; Column: Kinetex EVO C18 2.1×30 mm, 5 μm. • 2) Conversion (%)=peak area 1/(peak area 1+peak area 2)*100%, peak area 1 is the integration of hydrolyzed product, peak area 2 is the integration of starting material.

Measured: Condition 2 Conversion (%)

COc1ccc([C@@]23CCC(OP4(=O)OCC(C)(C)CO4)=C[C@@H]2N(C)CC3)cc1OC [Compound 323, 2-[[(3aS,7aS)-3a-(3,4-dimethoxyphenyl)-1-methyl-3,4,5,7a-tetrahydro-2H-indol-6-yl]oxy]-5,5-dimethyl-1,3,2λ^5-dioxaphosphinane 2-oxide]
0%: 1 min | 5 min | 30 min | 1 h | 4 h | 24 h
